Assay results published in EP4741383A1, “COMPOUND AND USE THEREOF AS ANTI-CANCER DRUG” (Tyligand Bioscience (Shanghai) Limited, priority 2023, dated 2025).

Tests used:
Type in all cases: biochemical
[1] = biological target: T1, SHP1 (Homo sapiens, UniProt P29350); experiment: Tyrosine phosphatase selectivity (pNPP substrate), SHP1; conditions: for IC50: SHP1, pNPP substrate; for IC50PTP/IC50SHP2 SHP1: selectivity ratio SHP1 over SHP2
T1 construct: made in house; host or cells: E. coli
Experimental: (§1) This experiment evaluated the selectivity of the disclosed compounds against tyrosine phosphatases, including SHP1, HePTP, Laforin, LMWPTP, LYP, PTP1B, PRL2, SSU72, VHR, FAP1, STEP, CDC14A, CD45, MEG2, and PP5, all expressed and purified from E. coli.
(§2) Phosphatase activity was measured using p-nitrophenyl phosphate (pNPP) (Fisher Scientific) as the substrate in 50 mM 3,3-dimethylglutaric acid buffer (pH 7.0, containing 1 mM EDTA), with ionic strength adjusted to 0.15 M with NaCl. […] After 10-60 minutes, the reaction was quenched by adding 20 µL of 5 N NaOH. Wells without enzyme were used as controls for correction. The amount of the product, p-nitrophenol, was determined by measuring the absorbance at 405 nm using a Spectra MAX340 microplate spectrophotometer (Molecular Devices), with a molar extinction coefficient of 18000 M^-1cm^-1.
(§3) Data were analyzed using GraphPad Prism software. Dose-response curves were obtained by fitting data using the nonlinear S-curve regression Dose-response-inhibition equation, and IC50 values were calculated.

[2] = biological target: T2, HePTP (Homo sapiens, UniProt P35236); experiment: Tyrosine phosphatase selectivity (pNPP substrate), HePTP; conditions: for IC50: HePTP, pNPP substrate; for IC50PTP/IC50SHP2 HePTP: selectivity ratio HePTP over SHP2
T2 construct: made in house; host or cells: E. coli
T2 sequence (P35236 1-360): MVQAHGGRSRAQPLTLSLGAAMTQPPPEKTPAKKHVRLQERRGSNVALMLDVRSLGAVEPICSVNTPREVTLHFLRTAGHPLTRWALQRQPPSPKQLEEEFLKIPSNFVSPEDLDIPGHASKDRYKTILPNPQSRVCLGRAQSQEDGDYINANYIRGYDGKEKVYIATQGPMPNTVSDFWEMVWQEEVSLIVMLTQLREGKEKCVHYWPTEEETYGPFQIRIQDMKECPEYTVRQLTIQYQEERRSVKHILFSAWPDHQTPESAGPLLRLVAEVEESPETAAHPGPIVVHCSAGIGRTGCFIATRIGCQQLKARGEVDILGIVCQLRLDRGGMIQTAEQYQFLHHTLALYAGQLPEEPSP
Experimental: as §1, §2, §3

[3] = biological target: T3, Laforin (Homo sapiens, UniProt O95278); experiment: Tyrosine phosphatase selectivity (pNPP substrate), Laforin; conditions: for IC50: Laforin, pNPP substrate; for IC50PTP/IC50SHP2 Laforin: selectivity ratio Laforin over SHP2
T3 construct: made in house; host or cells: E. coli
T3 sequence (O95278 1-331): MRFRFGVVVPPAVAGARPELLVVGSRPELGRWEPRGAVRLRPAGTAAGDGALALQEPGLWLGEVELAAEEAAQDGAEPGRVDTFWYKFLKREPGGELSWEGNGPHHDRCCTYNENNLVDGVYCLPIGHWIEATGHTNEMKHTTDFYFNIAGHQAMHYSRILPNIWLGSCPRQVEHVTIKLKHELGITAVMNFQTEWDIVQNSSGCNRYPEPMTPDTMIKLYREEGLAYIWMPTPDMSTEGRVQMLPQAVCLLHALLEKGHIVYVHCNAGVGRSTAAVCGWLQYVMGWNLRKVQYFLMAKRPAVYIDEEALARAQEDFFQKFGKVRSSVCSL
Experimental: as §1, §2, §3

[4] = biological target: T4, LMWPTP (Homo sapiens, UniProt P24666); experiment: Tyrosine phosphatase selectivity (pNPP substrate), LMWPTP; conditions: for IC50: LMPTP*, pNPP substrate; for IC50PTP/IC50SHP2 LMPTP*: selectivity ratio LMPTP* over SHP2
T4 construct: made in house; host or cells: E. coli
T4 sequence (P24666 1-158): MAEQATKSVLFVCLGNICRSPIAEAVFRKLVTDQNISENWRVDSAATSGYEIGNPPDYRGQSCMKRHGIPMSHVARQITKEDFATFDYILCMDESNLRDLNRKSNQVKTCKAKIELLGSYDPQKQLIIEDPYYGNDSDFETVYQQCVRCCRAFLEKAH
Experimental: as §1, §2, §3

[5] = biological target: T5, LYP (Homo sapiens, UniProt Q9Y2R2); experiment: Tyrosine phosphatase selectivity (pNPP substrate), LYP; conditions: for IC50: LYP, pNPP substrate; for IC50PTP/IC50SHP2 LYP: selectivity ratio LYP over SHP2
T5 construct: made in house; host or cells: E. coli
T5 sequence (Q9Y2R2 1-807): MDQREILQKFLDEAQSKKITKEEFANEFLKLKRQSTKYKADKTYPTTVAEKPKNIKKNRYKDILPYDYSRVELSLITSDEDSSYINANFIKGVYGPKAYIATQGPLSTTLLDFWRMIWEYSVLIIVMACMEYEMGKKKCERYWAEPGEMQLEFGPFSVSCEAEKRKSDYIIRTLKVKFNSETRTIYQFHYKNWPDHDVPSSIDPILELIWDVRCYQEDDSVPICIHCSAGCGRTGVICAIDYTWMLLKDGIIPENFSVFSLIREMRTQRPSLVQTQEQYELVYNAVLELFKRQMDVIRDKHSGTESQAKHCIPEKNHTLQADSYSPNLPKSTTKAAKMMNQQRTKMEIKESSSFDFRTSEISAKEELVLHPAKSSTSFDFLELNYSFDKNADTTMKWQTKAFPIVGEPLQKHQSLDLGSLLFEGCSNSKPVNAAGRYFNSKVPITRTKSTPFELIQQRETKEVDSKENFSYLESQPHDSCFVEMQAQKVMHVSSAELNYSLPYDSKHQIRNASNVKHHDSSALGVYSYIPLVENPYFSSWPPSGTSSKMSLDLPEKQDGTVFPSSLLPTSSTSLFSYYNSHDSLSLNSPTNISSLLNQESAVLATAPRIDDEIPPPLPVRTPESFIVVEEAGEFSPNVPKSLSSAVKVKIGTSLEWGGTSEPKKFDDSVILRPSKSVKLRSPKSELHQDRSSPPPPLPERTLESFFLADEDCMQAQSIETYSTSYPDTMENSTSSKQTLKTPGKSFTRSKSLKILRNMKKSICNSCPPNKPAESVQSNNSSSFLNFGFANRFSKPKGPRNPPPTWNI
Experimental: as §1, §2, §3

[6] = biological target: T6, PP5 (Homo sapiens, UniProt P53041); experiment: Tyrosine phosphatase selectivity (pNPP substrate), PP5; conditions: for IC50: PP5, pNPP substrate; for IC50PTP/IC50SHP2 PP5: selectivity ratio PP5 over SHP2
T6 construct: made in house; host or cells: E. coli
T6 sequence (P53041 1-499): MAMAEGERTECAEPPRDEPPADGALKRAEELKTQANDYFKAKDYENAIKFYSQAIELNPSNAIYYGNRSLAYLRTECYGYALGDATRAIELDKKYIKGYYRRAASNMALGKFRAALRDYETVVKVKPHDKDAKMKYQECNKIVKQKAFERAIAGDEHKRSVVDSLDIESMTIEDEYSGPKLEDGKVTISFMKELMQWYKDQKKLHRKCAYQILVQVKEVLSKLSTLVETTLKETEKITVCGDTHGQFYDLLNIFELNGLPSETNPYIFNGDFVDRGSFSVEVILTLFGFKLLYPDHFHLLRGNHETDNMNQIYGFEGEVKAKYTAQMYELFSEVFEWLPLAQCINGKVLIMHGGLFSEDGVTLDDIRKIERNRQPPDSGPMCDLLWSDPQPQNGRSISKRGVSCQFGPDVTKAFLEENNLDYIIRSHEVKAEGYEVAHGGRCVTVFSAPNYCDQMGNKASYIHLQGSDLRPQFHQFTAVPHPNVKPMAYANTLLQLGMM
Experimental: as §1, §2, §3

T1 sequence (P29350 whole entry): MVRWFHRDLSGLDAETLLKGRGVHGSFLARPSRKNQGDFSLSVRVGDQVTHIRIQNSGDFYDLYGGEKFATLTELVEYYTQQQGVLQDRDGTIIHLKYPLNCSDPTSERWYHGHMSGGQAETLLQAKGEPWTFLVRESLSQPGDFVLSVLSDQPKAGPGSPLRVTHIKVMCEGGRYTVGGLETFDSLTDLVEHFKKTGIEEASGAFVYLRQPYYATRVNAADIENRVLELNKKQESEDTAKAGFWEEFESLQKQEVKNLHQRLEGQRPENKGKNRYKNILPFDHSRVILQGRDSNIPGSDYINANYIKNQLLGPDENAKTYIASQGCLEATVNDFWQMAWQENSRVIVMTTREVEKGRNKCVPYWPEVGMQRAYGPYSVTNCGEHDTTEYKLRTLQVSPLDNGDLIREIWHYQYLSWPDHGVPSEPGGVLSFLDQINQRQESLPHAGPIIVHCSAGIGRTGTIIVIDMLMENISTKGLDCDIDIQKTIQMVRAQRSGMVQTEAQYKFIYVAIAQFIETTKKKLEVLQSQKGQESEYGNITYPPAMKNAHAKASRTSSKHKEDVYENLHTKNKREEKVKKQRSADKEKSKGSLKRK

Row | IC50 [1] [µM] | IC50PTP/IC50SHP2 SHP1 [1] | IC50 [2] [µM] | IC50PTP/IC50SHP2 HePTP [2] | IC50 [3] [µM] | IC50PTP/IC50SHP2 Laforin [3] | IC50 [4] [µM] | IC50PTP/IC50SHP2 LMPTP* [4] | IC50 [5] [µM] | IC50PTP/IC50SHP2 LYP [5] | IC50 [6] [µM] | IC50PTP/IC50SHP2 PP5 [6] | SMILES
1 | 0.8 | 30.8 | 6.1 | 234.6 | > 20 | 769.2 | > 20 | 769.2 | 0.5 | 19.2 | > 50 | 1923.1 | O=C(Nc1ccc(-c2ccsc2)cc1)C(=O)Nc1ccc(-c2cc3cnc(-c4nnn[nH]4)nc3n2C2CCC2)cc1 [Example 131]
2 | 0.6 | 22.2 | 5.7 | 211.1 | > 20 | 740.7 | > 20 | 740.7 | 0.5 | 18.5 | > 50 | 1851.9 | O=C(Nc1ccc(-c2ccsc2)cc1)C(=O)Nc1ccc(-c2cc3cc(F)c(-c4nnn[nH]4)nc3n2C2CCC2)cc1 [Example 132]
